For three compounds, ED50, LD50/ED50 and LD50 results are on record in patent publication EP0028270A1, “Pyrazino-carbazoles, process for their preparation and pharmaceutical compositions containing them” (CASSELLA Aktiengesellschaft, priority 1979, dated 1981).

Data set [1] deals with Tetrabenazin. As to the kind of experiment: Tetrabenazine antagonism (antidepressant activity). The data set is classed as in vivo. The following applies: for ED50: no unit, species or route given, read-out: Tetrabenazin Dosis Antagonismus ED50; for LD50/ED50: ratio of LD50 to tetrabenazine antagonism ED50.
The nature of data set [2]: Acute toxicity (LD50). The data set is classed as in vivo. The following applies: no unit, species or route given.

The structures appear in SMILES notation.

By ED50 is commonly meant the dose at which the effect has come halfway, by size or by number of responders. A word on the LD50: it is the dose at which mortality reaches 50%. A higher LD50 goes with lower toxicity. With `COc1ccc2c(c1)c1c3n2CCN=C3CCC1.Cl` [Beispiel 2, 8-Methoxy-2,4,5,6-tetra-hydro-1H-pyrazino[3,2,1-jk]carbazol-Hydrochlorid], in data set [1], the ED50 is 2 mg/kg and the LD50/ED50 is 18,5. Also, the LD50 in data set [2] came out at 37 mg/kg.
The matching figures for `Cc1ccc2c(c1)c1c3n2CCN=C3CCC1.Cl` [Beispiel 1, 8-Methyl-2,4,5,6-tetra-hydro-1H-pyrazino[3,2,1-jk]carbazol-Hydrochlorid]: 4 mg/kg, 18,0 and 72 mg/kg.
`Cc1ccc2c(c1)c1c3n2CCNC3CCC1.Cl` (centres unmarked) [8-Methyl-2,3,3a,4,5,6-hexahydro-1H-pyrazino[3,2,1-jk]-carbazol-Hydrochlorid, reference compound]: in data set [1], the ED50 worked out at 14 mg/kg and the LD50/ED50 was 8,7.
